This is an account of results in a melting point compilation (Tetko et al.; mined from patent text by program, amines drawn as free bases though some values may be those of a salt).

One may read the melting point as the temperature of the solid-liquid transition. On to `Cc1ccc2c(c1)c(-c1ccc(F)cc1)c(C)n2C1=CCN(CCN2CCNC2=O)CC1`, for which the melting point was 151 to 153 °C.
Take `O=C(O)CSc1c(-c2cc(Cl)ccc2O)c2cc(C(F)(F)F)ccc2[nH]c1=O`: the melting point turned out to be 235 °C.
The result for `COc1ccc(NC(=O)c2ccc(-c3ccc(-c4noc(C)n4)cc3)cc2)cc1N1CCN(C)CC1` reads 135 to 137 °C; that for `CCOC(=O)COc1cc(OC)cc2c1c1c(n2Cc2ccccc2)CCCC1C(N)=O` (stereo not drawn), 167 to 169 °C; that for `O=c1c2c(Cc3ccccc3)n[nH]c2c2cccnc2n1-c1cccc(C(F)(F)F)c1`, 226 to 228 °C.
On to `O=C(Nc1nc2ccc(Cl)cc2c2c1ncn2-c1ccccc1Cl)c1ccccc1`, for which the melting point was 255 to 258 °C.
Regarding `CC(C)(C)c1cc(NC(=O)C=Cc2ccccc2)cc(C(C)(C)C)c1O`, the melting point lay in the range of 211 to 214 °C.
In the case of `CCCc1cc(CO)cc(=O)[nH]1` it was 167 °C; in that of `CCN(CC)C(=O)c1c(C(C)C)cc(OC)cc1S(N)(=O)=O`, 122 to 125 °C; in that of `O=C(O)CCNC(=O)NCCCN1CCN(c2ccccc2)CC1`, 169 to 171 °C.
Take `O=CNc1ccccc1N1CCc2cc(Cl)ccc21`: the melting point is 126 to 129 °C.
The compound `C[C@H]1C[C@H](OC(=O)C(C)(C)Oc2ccc(CCNC(=O)c3ccc(Cl)cc3)cc2)CC(C)(C)C1` (relative stereo) returned a melting point of 100 °C.
In the case of `COc1ccc2nccc([C@@H]3CN(CCCNS(=O)(=O)c4ccc5c(c4)NC(=O)CS5)C(=O)O3)c2c1` it was 135 to 140 °C; in that of `COCN(C(=O)Cc1ccc(Cl)cc1)C(c1cncnc1C(F)(F)F)C(C)C` (stereo not drawn), 142 to 145 °C.
Consider `O=C(O)Cc1c(C(=O)c2ccc3c(c2)OCCO3)[nH]c2cc(Cl)ccc12`, for which the melting point was 233 °C.
Consider `O=C(NCCc1ccccc1)c1ccccc1-c1ccccc1CNS(=O)(=O)c1cccc([N+](=O)[O-])c1`, for which the melting point was found to be 145 °C.
Compound `O=C(Nc1cccc(Cl)c1)Nc1cnnc(Cl)c1` gave a melting point of 240 to 248 °C.
The compound `COc1cccc2c1CC1CC(CN3CCC(c4c[nH]c5ccccc45)CC3)CN(C)C1C2` (stereo not drawn) registered a melting point of 220 to 223 °C.
In the case of `CC(=O)SCC(CC(C)C)C(=O)NCCN1CCOCC1` (stereo not drawn) it was 54 to 59 °C; in that of `Cc1cc(OCCCC(C)(C)C(=O)O)c(C)c(C)c1OCc1ccccc1`, 105 to 107 °C.
The result for `CCOC(=O)c1cn(C2CC2)c2c(F)c(N3CC(O)C3)c(F)cc2c1=O` reads 260 to 270 °C; that for `Cc1ccc(S(=O)(=O)c2ccc(N3CCNCC3)cc2N)cc1`, 102 to 106 °C.
In the case of `O=c1[nH]c2c(n(O)c1=O)C1=C(CCC(n3ccc(CN4CCN(Cc5ccccc5)CC4)c3)=C1)CC2`, the melting point is over 200 °C.
Compound `O=C(O)CCCn1ccc(=O)c(O)c1Cc1ccccc1` returned a melting point of 170 to 172 °C.
In turn, `Cc1cccc2nc(NC(=O)c3ccc(C(C)(C)C(=O)O)cc3)cn12` showed a melting point of 282 to 283 °C.
In the case of `COC(=O)c1ccc(O)c(C23CC4CC(CC(C4)C2)C3)c1` it was 183 to 184 °C; in that of `COC(=O)C(CCCCNC(=O)c1ccc(NC(=O)OCc2ccccc2)cc1)n1c2ccccc2c2ccccc21` (stereo not drawn), 87 to 88 °C.
`CCOC(=O)Cc1csc(-c2cccc(O)c2)n1` had a melting point of 95.5 to 97.2 °C.
In the case of `CC1(C)CC(=S)Nc2ccc(-c3cccc(F)c3)cc21` it was 209 to 211 °C.
With `CN(C)Cc1ccc(CSCCNC(=C[N+](=O)[O-])NCCSCc2ccc(CN(C)C)o2)o1`, the melting point was 58 to 62 °C.
The result for `COC(=O)C(C)(NC1OC(=O)C2C3C=CC(C3)C12)c1ccccc1` (stereo not drawn) reads 120 °C; that for `C=CS(=O)(=O)NC(=O)Nc1nc(C)cc(C)n1`, 131 to 133 °C.
As to `NS(=O)(=O)c1ccc(-n2nc(C(F)(F)F)cc2-c2ccc(-c3cscn3)c(Cl)c2)cc1F`, the melting point is 173 to 175 °C.
Turning to `Cc1nn(C(C)(C)C)c(N)c1C#N`, the melting point lay within 156 to 157 °C.
`COc1c(C=Cc2ccc(C=CC3=C(C#N)C(=C(C#N)C#N)OC3(c3ccccc3)C(F)(F)F)s2)cc2c3c1CCCN3CCC2` (stereo not drawn) came in with a melting point of 156 to 160 °C.
The result for `CCOC(=O)C1CCN(c2ncc(NS(=O)(=O)c3ccccc3Br)c(NCc3ccc4c(c3)OCO4)n2)CC1` reads 160 to 161 °C; that for `N#CC(C(=O)C(F)(F)F)c1cc(Cl)cc(Cl)c1Cl` (stereo not drawn), 160 to 163 °C.
As to `COC(=O)Cc1ccc2c(c1)C(C)(C)CCC2(C)C`, the melting point lay in the range of 83 to 85 °C.
As to `Clc1nc(-c2ccccc2)nc(-c2ccccc2)n1`, the melting point fell in the range of 136 to 138 °C.
`N#Cc1c(Nc2cccnc2)nn(Cc2ccccc2)c1N`: the melting point was 191 to 192 °C.
Turning to `CC(C)N(CCO)C(=O)c1noc2ccccc12`, the melting point lay in the range of 92 to 94 °C.
In the case of `COc1cc2c(c(Cl)c1Cl)CCC2`, the melting point fell in the range of 78 to 82 °C.
The result for `CCC(CC)Oc1cc(C)nc(Oc2c(C)cc(C)cc2C)c1N` reads 96 to 98 °C; that for `COc1ccc(-n2c(CC(=O)O)c(C(=O)O)c3cc(Oc4cc(C(F)(F)F)cc(C(F)(F)F)c4)ccc32)cc1`, 232 °C.
In turn, `CC(=O)N1CCN(c2c(Cl)cncc2Cl)CC1` came in with a melting point of 144 to 146 °C.
On to `COc1cc(-c2ccccc2Cl)c(Cl)cc1C(=O)N1Cc2ccc(C(=O)N(C)Cc3cccnc3)n2Cc2ccccc21`, for which the melting point lay in the range of 196 to 198 °C.
On to `CN(Cc1ccccc1)C(=O)C[C@@H](Cc1ccccc1)C(=O)O`, for which the melting point lay within 119 to 121 °C.
The compound `Cc1cc(Cl)cc(Cl)c1CNc1c(NC(C)(C)C)c(=O)c1=O` showed a melting point of 264 to 268 °C.
`CCc1ccc(OC)c(-c2cc(C(C)(C)C)c(O)c(C(C)(C)C)c2)c1` registered a melting point of 78 to 79 °C.
In turn, `CN(CC(C)(C)[N+](=O)[O-])c1ccc(N(C)CC(C)(C)[N+](=O)[O-])cc1` yielded a melting point of 119 to 121 °C.
`O=C(O)CCCSC(=S)NCCCc1ccc(Cl)cc1`: the melting point is 98 to 100 °C.
Compound `CCOC(=O)c1ccc2oc(CN3CCN(c4ccc(Cl)nn4)CC3)nc2c1` displayed a melting point of 140 °C.
`COc1ccc(COC(=O)ON=C(C#N)c2ccccc2)cc1` returned a melting point of 112 to 113 °C.
Compound `Cc1cccc(-c2ccc3c(c2)c2c(n3Cc3ccc(C(C)(C)C)cc3)COC(=O)C2=O)c1` yielded a melting point of 196 to 197 °C.
In the case of `Nc1ccc(-c2ccc(N)cc2Br)c(Br)c1` it was 151 to 153 °C; in that of `Cc1nc(C=CNC(=O)c2ccccc2)n[nH]1`, 140 to 145 °C.
`O=C(NCCCCSc1ccncc1)c1ccccc1` showed a melting point of 75 to 77 °C.
`COc1ccc(N2CCN(c3c(C)c(C)c4c(c3C)CC(C)(C)O4)CC2)cc1` yielded a melting point of 152 to 155 °C.
In the case of `COc1cc(C)c(C2=C(C)CN(O)C=C2C)c(C)c1`, the melting point fell in the range of 194 to 195 °C.
`CCc1cccc(CNC[C@@H](O)[C@H](Cc2cc(F)cc(F)c2)NC(=O)CC2CCCC(=O)C2)c1` (stereo partly drawn) showed a melting point of 140 to 150 °C.
The compound `O=C(Cn1c(-c2ccc(Cl)cc2)nc2cccnc21)N(c1ccccc1)c1ccccc1` registered a melting point of 176 to 178 °C.
`CCn1c2ccccc2c2cc(N(Cc3ccccc3)Cc3ccccc3)ccc21` displayed a melting point of 123 to 125 °C.
Take `NC(=O)C1(N2CCCCC2)CCN(Cc2ccccc2)CC1`: the melting point lay within 150 to 160 °C.
As for `N#Cc1ccc(-c2cc(C#N)cc(Cn3cncn3)c2)cc1`, the melting point is 154 to 155 °C.
Turning to `Cc1cccc(C)c1N1C(=S)N(C)C(O)C1O` (stereo not drawn), the melting point lay in the range of 140 to 143 °C.
Compound `C=CCCc1nc(N)n2nc(-c3ccco3)nc2n1` came in with a melting point of 194 to 196 °C.
For `CNC(=O)Cc1c(-c2ccc(C)cc2)nn2cccnc12`, the melting point is 207 to 208 °C.
Consider `Cc1cccc(C(=O)CCl)c1O`, for which the melting point lay in the range of 65 to 66 °C.
Compound `COc1cccc2c(C(F)(F)F)cc(N3CCNCC3)nc12` returned a melting point of 130 °C.
The result for `OC1(c2ccc(Cl)nc2)CCCC1` reads 92 to 93 °C.
In turn, `CNC(=O)C(Cc1ccc(OC)cc1)NC(=O)C(CC(C)C)C(CC(=O)NCC(=O)O)SC(C)=O` (stereo not drawn) returned a melting point of 188 to 192 °C.
Consider `COc1cc(Cc2nc(NC(C)C)c3c(C)c(C#N)sc3n2)cc(OC)c1OC`, for which the melting point lay within 143 to 147 °C.
`CCOc1ccc(-c2nc(C)c(C(=O)O)s2)cc1Cl` had a melting point of 219 to 220 °C.
Turning to `CCN1CC([N+](=O)[O-])=C(N(C)C)N(Cc2cccnc2)C1`, the melting point is 97 to 98 °C.
As for `NC(=S)Nc1ccc2ccccc2n1`, the melting point was in the range of 179 to 180 °C.
In turn, `CC(=O)N(C)c1cc(Cl)ccc1C(=O)c1cnoc1C1CC1` yielded a melting point of 106 to 108 °C.
Turning to `N#Cc1ccc(-c2ccc3oc(CCN)cc3c2)cc1`, the melting point is 118 to 120 °C.
As for `O=[N+]([O-])c1ccc2sc(=Nc3ccccc3)sc2c1`, the melting point is 136 to 138 °C.
`CC(C)(C)OC(=O)NCc1ccc2c(c1)CNC2`: the melting point was 114 to 115 °C.
`CCOC(=O)c1nc(NC)sc1-c1nc2ccccn2c1C` displayed a melting point of 183 to 185 °C.
`FC(F)(F)Cn1cc(C#Cc2cccc(Br)c2)cn1` registered a melting point of 107 to 109 °C.
`CCCCCCC(C(=O)O)n1nnc(NC(=O)c2ccccc2C(=O)O)n1` (stereo not drawn): the melting point lay within 140 to 142 °C.
Compound `COc1cc(COc2nn(C)cc2C(N)=O)ccc1OCc1nc(-c2ccccc2)oc1C` yielded a melting point of 168 to 169 °C.
Consider `O=S(=O)(/C=C\S(=O)(=O)c1ccccc1)c1ccccc1`, for which the melting point lay within 100 to 101 °C.
In the case of `CC(=O)c1c(-c2ccncc2)sc(Cl)c1C` it was 60 to 61 °C; in that of `Cc1cccc(C2=CCN(c3ccc(Cl)nn3)CC2)c1`, 122 °C; in that of `COc1cccc2c1CC(C(=O)NCCOc1ccc(C(=O)O)cc1)N2S(=O)(=O)c1ccc(-c2ccc(F)cc2F)cc1` (stereo not drawn), 206 °C.
`Fc1ccc(F)c(C(Sc2ccc(Cl)cc2)c2cc(Cl)ncc2Cl)c1` (stereo not drawn) came in with a melting point of 128 to 129 °C.
